Among the data in PMC7827406, “Structure–Activity Relationship (SAR) Study of Spautin-1 to Entail the Discovery of Novel NEK4 Inhibitors” (International Journal of Molecular Sciences, 2021) are remaining activity values, retold here.

Where two headings read alike, the source gives them in different places.

What all share (assay): biochemical
Set-up in all cases: Eurofins KinaseProfiler full panel at Km ATP, residual kinase activity (%) relative to DMSO

One experiment deals with T1, IGF-1R(h), activated (Homo sapiens, UniProt P08069).
T1 construct: gene IGF1R
The procedure, abridged: (§1)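 Compounds screened at 10 µM in radiometric kinase activity assays at Km ATP, reported as remaining kinase activity (%). A KINOMEscan competition-binding screen at 10 µM measured DNA-tagged kinase retained on immobilized active-site ligand by qPCR.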

The next experiment addresses T2, A-Raf(h) (Homo sapiens, UniProt P10398).
T2 construct: gene ARAF
T2 sequence (P10398 1-606): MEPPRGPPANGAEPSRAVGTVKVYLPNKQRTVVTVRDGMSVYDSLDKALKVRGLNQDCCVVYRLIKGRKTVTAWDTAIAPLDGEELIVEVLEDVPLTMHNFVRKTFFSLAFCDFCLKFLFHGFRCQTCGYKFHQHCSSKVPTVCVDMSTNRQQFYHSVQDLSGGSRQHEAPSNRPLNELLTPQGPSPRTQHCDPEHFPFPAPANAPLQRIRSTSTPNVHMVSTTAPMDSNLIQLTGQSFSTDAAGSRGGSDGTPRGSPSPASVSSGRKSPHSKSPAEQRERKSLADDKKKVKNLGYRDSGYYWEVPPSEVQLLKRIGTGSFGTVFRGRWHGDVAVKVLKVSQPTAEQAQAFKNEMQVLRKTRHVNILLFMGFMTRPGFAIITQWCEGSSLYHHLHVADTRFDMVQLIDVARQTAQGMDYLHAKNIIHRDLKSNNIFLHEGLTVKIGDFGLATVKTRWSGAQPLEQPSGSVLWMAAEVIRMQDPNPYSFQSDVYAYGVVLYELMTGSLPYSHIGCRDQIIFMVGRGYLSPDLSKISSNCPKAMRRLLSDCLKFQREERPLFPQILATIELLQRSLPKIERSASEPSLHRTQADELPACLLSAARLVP
In short, it runs like this: as §1

The target of a further experiment is T3, ALK1(h) (Homo sapiens, UniProt P37023).
T3 construct: gene ACVRL1
The procedure, abridged:
as §1

Experiment [1] concerns the target T4, PI3 Kinase (p110a/p85a)(h) (Homo sapiens, UniProt P42336).
T4 construct: gene PIK3CA
The procedure, abridged:
as §1

A further experiment has as its target T5, MuSK(h) (Homo sapiens, UniProt O15146).
T5 sequence (O15146 1-869): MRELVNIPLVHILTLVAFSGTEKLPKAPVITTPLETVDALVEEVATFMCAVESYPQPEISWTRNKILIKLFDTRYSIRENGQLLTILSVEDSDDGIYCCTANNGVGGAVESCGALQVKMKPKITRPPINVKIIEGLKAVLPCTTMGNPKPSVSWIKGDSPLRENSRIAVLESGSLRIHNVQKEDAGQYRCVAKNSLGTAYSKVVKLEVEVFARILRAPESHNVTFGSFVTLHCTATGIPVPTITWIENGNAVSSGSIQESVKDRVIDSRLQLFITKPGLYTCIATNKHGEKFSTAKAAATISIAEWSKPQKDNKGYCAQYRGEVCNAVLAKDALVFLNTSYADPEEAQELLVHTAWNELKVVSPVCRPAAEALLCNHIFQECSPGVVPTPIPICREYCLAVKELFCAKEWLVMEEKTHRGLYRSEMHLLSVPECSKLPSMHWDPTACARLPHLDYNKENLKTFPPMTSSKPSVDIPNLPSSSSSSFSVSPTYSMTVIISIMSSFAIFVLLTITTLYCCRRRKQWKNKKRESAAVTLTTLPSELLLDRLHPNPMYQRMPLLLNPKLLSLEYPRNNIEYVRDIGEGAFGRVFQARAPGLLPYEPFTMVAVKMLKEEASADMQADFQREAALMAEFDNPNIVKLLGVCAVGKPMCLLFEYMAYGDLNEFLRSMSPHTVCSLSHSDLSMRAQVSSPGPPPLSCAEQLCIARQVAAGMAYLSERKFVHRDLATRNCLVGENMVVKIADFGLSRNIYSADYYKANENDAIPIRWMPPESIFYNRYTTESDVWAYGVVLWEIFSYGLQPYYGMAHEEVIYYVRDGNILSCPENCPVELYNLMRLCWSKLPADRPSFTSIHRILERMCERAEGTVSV
The procedure, abridged: as §1

Experiment [2] deals with T6, PI3 Kinase (p110a/p85a)(m) (Mus musculus, UniProt P42337).
T6 construct: gene Pik3ca
In short, it runs like this:
as §1

The target of the next experiment is TTBK1(h) (Homo sapiens, UniProt Q5TCY1). In short, it runs like this: as §1
Where [3] appears, read: read-out: Residual activity (%) Spautin-1 5aa.
[4] abbreviates: read-out: Residual activity (%) 5as.
Where [5] appears, read: read-out: Residual activity (%) 5at.
The mark [6] stands for this setting: read-out: Residual activity (%) 5ay.

T6 sequence (P42337 whole entry): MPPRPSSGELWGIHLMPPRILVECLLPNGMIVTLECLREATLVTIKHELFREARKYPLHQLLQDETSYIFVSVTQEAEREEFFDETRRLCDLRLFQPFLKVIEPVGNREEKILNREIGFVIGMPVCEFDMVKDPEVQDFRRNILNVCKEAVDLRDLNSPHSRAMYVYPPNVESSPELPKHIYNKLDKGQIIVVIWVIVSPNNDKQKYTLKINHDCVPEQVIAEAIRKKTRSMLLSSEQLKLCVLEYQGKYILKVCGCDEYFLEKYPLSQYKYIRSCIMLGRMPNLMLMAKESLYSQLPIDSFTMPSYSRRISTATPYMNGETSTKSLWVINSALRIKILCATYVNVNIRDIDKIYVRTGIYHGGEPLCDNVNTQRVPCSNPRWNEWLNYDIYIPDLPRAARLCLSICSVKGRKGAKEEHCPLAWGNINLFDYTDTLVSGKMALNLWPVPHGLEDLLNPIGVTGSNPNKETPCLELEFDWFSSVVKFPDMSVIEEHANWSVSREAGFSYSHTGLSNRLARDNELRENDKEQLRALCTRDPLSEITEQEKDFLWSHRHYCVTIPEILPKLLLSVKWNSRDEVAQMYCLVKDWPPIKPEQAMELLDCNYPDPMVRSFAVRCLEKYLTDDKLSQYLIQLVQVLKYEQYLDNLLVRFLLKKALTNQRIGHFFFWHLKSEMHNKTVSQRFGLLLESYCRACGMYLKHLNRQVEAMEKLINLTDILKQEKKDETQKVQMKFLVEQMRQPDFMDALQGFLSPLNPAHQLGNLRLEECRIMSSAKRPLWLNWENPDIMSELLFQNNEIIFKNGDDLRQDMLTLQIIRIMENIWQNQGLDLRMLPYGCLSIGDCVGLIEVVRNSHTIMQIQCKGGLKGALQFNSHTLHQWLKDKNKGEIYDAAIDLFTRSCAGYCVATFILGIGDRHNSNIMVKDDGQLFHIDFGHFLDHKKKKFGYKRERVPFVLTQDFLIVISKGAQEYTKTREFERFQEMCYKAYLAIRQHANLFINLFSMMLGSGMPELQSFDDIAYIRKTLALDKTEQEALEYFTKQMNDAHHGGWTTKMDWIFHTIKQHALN
T6 sequence (P26450 whole entry partner): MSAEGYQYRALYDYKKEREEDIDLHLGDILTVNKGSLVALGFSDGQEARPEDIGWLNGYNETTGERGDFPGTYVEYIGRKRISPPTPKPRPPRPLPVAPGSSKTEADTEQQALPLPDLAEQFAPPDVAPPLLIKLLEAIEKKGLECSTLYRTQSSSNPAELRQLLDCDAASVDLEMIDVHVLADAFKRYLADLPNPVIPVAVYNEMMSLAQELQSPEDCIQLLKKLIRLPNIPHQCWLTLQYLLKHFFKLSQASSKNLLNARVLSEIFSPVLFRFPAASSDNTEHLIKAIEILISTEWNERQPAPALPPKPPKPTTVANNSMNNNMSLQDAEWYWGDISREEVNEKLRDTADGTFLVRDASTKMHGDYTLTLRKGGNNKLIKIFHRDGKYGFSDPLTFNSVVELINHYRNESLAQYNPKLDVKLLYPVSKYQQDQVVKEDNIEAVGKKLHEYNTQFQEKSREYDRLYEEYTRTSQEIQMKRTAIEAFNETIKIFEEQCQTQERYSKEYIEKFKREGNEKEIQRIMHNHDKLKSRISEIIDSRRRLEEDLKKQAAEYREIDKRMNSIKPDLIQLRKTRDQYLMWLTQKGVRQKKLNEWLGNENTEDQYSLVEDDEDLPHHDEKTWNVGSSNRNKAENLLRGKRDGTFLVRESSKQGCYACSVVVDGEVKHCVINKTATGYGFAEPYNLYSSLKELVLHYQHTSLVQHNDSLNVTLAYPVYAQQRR
T3 sequence (P37023 whole entry): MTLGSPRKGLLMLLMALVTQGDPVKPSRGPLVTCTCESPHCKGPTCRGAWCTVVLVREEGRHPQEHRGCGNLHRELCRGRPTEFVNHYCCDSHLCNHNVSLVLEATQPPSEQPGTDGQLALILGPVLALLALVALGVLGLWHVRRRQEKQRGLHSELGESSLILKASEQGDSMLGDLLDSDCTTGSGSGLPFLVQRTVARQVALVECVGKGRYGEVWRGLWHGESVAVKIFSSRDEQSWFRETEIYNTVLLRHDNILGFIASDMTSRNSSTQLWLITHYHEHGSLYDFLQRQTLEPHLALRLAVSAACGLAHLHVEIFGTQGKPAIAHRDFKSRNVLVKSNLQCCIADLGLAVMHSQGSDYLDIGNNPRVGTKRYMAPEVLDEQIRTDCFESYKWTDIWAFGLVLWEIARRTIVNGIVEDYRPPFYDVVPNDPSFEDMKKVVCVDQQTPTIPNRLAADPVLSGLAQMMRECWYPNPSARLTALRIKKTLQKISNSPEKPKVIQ
Sequence of TTBK1(h) (Q5TCY1 whole entry): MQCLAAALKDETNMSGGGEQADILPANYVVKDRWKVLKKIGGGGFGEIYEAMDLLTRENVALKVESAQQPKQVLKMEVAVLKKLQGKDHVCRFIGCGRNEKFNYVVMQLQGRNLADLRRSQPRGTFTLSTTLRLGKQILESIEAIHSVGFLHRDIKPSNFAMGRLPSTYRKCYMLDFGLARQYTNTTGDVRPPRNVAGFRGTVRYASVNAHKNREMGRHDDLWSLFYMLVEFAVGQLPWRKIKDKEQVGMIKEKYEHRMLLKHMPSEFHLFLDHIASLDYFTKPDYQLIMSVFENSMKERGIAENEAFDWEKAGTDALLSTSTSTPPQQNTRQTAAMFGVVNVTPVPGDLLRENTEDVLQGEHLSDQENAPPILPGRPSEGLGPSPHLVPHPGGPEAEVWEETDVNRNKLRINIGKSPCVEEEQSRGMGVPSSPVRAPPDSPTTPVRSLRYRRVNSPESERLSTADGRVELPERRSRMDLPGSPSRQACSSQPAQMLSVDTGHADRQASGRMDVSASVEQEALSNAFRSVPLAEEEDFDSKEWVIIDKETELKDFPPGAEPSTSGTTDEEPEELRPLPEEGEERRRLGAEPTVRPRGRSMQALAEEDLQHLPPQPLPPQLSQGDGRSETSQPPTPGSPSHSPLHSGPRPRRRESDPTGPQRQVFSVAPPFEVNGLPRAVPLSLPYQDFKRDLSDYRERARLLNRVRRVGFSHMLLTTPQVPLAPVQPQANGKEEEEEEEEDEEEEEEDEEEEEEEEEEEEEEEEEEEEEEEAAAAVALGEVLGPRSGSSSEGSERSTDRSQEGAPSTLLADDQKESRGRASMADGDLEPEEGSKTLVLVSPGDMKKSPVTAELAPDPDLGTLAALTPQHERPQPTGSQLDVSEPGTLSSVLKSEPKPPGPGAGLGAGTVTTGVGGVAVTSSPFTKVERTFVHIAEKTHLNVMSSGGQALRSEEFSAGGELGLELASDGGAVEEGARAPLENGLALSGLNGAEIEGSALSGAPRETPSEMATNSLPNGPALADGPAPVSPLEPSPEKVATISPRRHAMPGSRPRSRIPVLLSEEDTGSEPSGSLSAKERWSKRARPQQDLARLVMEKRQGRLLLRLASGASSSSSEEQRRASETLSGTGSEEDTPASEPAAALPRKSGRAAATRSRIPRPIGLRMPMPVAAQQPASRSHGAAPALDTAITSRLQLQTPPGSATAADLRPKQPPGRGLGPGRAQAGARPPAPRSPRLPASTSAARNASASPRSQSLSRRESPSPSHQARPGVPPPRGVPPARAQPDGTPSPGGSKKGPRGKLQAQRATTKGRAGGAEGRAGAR
T1 sequence (P08069 whole entry): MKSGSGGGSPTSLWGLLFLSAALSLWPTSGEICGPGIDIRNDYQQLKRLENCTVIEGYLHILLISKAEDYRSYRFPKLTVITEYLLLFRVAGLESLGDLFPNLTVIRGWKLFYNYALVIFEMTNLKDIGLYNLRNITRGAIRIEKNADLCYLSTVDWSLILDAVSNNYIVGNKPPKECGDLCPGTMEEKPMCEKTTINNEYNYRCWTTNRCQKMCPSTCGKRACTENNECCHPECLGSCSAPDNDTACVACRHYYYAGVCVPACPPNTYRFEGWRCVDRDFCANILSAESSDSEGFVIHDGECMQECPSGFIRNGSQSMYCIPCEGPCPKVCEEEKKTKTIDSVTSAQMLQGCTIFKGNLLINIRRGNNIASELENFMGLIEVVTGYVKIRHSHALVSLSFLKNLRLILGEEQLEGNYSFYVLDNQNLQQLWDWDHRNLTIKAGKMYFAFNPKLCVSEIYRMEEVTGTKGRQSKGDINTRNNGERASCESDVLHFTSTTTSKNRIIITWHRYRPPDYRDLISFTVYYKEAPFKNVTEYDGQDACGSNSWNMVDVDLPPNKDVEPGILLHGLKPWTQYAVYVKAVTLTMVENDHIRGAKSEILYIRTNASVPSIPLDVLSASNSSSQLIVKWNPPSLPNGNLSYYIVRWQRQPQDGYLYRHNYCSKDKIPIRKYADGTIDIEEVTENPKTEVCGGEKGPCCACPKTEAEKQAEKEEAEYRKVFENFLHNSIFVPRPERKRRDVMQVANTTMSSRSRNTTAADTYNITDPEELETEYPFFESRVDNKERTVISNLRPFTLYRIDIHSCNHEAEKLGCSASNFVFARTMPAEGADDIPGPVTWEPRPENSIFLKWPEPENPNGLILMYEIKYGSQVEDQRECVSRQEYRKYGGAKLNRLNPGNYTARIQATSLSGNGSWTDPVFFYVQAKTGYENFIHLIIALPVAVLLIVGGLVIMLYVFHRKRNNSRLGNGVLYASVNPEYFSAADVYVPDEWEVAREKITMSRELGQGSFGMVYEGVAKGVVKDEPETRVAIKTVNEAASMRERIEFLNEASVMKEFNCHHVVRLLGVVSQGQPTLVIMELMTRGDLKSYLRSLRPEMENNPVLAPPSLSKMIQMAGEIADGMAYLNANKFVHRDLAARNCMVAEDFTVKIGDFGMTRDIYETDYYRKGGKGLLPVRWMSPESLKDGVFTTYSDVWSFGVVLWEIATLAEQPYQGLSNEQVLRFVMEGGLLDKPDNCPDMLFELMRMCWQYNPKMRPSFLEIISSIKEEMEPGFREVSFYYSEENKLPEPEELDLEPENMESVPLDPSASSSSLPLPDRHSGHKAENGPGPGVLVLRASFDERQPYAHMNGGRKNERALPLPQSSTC

For `Fc1ccc(CNc2ncnc3ccc(F)cc23)cc1` [5aa, 6-Fluoro-N-(4-fluorobenzyl)-4-Quinazolinamine], the remaining activity at 10 µM at IGF-1R(h), activated (setting [3]) came out at 78%; at A-Raf(h) (setting [3]), 103%; at ALK1(h) (setting [3]) it was 104%; in experiment [1] (setting [3]), 100%; on MuSK(h) (setting [3]), 74%; in experiment [2] (setting [3]) it was 86%. Also, at TTBK1(h) (setting [3]), the remaining activity at 10 µM amounted to 119%.
With `Fc1ccc(CCNc2ncnc3ccc(F)cc23)cc1` [5as, 6-Fluoro-N-[2-(4-Fluorophenyl)Ethyl]-4-Quinazolinamine], the remaining activity at 10 µM at IGF-1R(h), activated (setting [4]) was determined as 72%; at A-Raf(h) (setting [4]), 106%; on ALK1(h) (setting [4]), 85%; in experiment [1] (setting [4]), 103%; on MuSK(h) (setting [4]) it was 81%; in experiment [2] (setting [4]) it was 83%. Further, at TTBK1(h) (setting [4]), the remaining activity at 10 µM is 104%.
Consider `Fc1ccc2ncnc(NCCc3ccc(Cl)cc3)c2c1` [5at, N-[2-(4-Chlorophenyl)Ethyl]-6-Fluoro-4-Quinazolinamine], for which the remaining activity at 10 µM at IGF-1R(h), activated (setting [5]) was found to be 76%; at A-Raf(h) (setting [5]), 108%; at ALK1(h) (setting [5]), 93%; in experiment [1] (setting [5]) it was 94%; at MuSK(h) (setting [5]), 97%; in experiment [2] (setting [5]) it was 82%. Further, the remaining activity at 10 µM on TTBK1(h) (setting [5]) came out at 114%.
With `COc1ccc2ncnc(Nc3cccc(F)c3)c2c1` [5ay, N-(3-Fluorophenyl)-6-Methoxy-4-Quinazolinamine], the remaining activity at 10 µM is 73% at IGF-1R(h), activated (setting [6]); 100% on A-Raf(h) (setting [6]); 96% on ALK1(h) (setting [6]); 101% in experiment [1] (setting [6]); 70% on MuSK(h) (setting [6]); 84% in experiment [2] (setting [6]). The remaining activity at 10 µM at TTBK1(h) (setting [6]) is 112%.
